Source: ChEMBL document CHEMBL6177999, “Discovery of 3-(Fluoro-imidazolyl)pyridazine Derivatives as Potent STING Agonists with Antitumor Activity” (J Med Chem, 2025)

How the values were obtained:
[1] = target: T1, Stimulator of interferon genes protein (Homo sapiens, UniProt Q86WV6); assay: Displacement of 5-FAM-labeled diABZI tracer from N-terminal 6xHis-tagged human STING R232H mutant CTD extracted from Escherichia coli BL21(DE3) incubated for 30 mins by competitive binding based fluorescence polarization assay
T1 sequence (Q86WV6 whole entry): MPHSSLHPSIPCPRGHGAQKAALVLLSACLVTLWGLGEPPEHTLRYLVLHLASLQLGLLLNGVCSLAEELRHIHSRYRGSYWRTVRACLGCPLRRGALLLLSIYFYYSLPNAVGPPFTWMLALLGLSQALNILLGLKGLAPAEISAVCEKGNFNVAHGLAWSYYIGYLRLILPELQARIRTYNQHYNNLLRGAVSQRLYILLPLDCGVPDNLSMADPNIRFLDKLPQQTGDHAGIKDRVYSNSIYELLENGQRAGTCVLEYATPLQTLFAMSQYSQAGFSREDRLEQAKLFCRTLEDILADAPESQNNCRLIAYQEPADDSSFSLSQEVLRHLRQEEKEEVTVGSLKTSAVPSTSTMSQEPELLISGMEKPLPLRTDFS

[2] = target: T1, Stimulator of interferon genes protein; assay: Displacement of 5-FAM-labeled diABZI tracer from N-terminal 6xHis-tagged wild-type human STING CTD extracted from Escherichia coli BL21(DE3) incubated for 30 mins by competitive binding based fluorescence polarization assay
[3] = target: T2, Stimulator of interferon genes protein (Mus musculus, UniProt Q3TBT3); assay: Displacement of 5-FAM-labeled diABZI tracer from N-terminal 6xHis-tagged wild-type mouse STING CTD extracted from Escherichia coli BL21(DE3) incubated for 30 mins by competitive binding based fluorescence polarization assay
T2 sequence (Q3TBT3 whole entry): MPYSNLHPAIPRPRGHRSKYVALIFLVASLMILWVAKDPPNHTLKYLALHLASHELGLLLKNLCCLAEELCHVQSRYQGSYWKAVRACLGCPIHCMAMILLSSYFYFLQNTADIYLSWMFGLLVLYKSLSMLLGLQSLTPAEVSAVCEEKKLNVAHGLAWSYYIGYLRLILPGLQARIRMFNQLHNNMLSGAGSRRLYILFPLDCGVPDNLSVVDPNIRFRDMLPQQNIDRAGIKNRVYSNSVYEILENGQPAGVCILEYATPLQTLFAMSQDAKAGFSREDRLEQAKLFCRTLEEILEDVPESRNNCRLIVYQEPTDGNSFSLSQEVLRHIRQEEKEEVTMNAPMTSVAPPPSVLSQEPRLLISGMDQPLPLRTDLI

[4] = target: T2, Stimulator of interferon genes protein; assay: Agonist activity at STING in mouse RAW-Lucia ISG cells harbouring SEAP reporter gene assessed as activation of cGAS-STING signaling pathway incubated for 24 hrs by QUANTI-Blue reagent based analysis
[5] = target: T2, Stimulator of interferon genes protein; assay: Agonist activity at STING in mouse RAW-Lucia ISG-KO-STING cells harbouring SEAP reporter gene assessed as activation of cGAS-STING signaling pathway incubated for 24 hrs by QUANTI-Blue reagent based analysis
[6] = target: Stimulator of interferon genes protein (Homo sapiens, UniProt Q86WV6, G230A/R293Q)
Stimulator of interferon genes protein (Homo sapiens, UniProt Q86WV6, G230A/R293Q), sequence (Q86WV6 whole entry G230A/R293Q): as the sequence (Q86WV6 whole entry) above, with G230A, R293Q counted along it

[7] = target: Stimulator of interferon genes protein (Homo sapiens, UniProt Q86WV6, R293Q)
Stimulator of interferon genes protein (Homo sapiens, UniProt Q86WV6, R293Q), sequence (Q86WV6 whole entry R293Q): as the sequence (Q86WV6 whole entry) above, with R293Q counted along it

[8] = Clearance in female C57BL/6 mouse at 10 mg/kg, iv measured up to 24 hrs by LC-MS/MS analysis; settings: in vivo
B16-F10 = assay: Antitumor activity against mouse B16-F10 cells allografted in female C57BL/6 mouse assessed as tumor growth inhibition at 30 mg/kg, iv qd relative to control; settings: B16-F10, read-out: TGI

In the case of `O=C(Nc1cc(Cl)c(F)cc1C(=O)O)c1ccc(-n2cnc(F)c2)nn1`, the IC50 [1] is reported as 1730 nM, the IC50 [2] is reported as 1840 nM and the IC50 [3] is reported as 2510 nM. For the same compound, the EC50 [4] was 46500 nM, the EC50 [5] was > 100000 nM and the IC50 [6] was 940 nM. For the same compound, the IC50 [7] was 1910 nM.

With `O=C(Nc1cc(F)c(F)cc1C(=O)O)c1ccc(-n2ccnc2)nn1` the IC50 [3] was 1870 nM, the EC50 [4] was > 100000 nM and the EC50 [5] was > 100000 nM. For the same compound, the clearance at 24 h [8] was 123 mL/min/kg and the inhibition in vivo at 30 mg/kg (B16-F10) was 52.4%.

`O=C(Nc1cc(Br)c(F)cc1C(=O)O)c1ccc(-n2cnc(F)c2)nn1` gave an IC50 [1] of 1360 nM, an IC50 [2] of 1480 nM and an IC50 [3] of 2640 nM. For the same compound, the EC50 [4] was 24600 nM, the EC50 [5] was > 100000 nM and the IC50 [6] was 980 nM. It also gave an IC50 [7] of 1450 nM.
